Reference: patent publication US20220313803A1, “NOVEL NEOANTIGENS AND CANCER IMMUNOTHERAPY USING SAME” (BRIGHTPATH BIOTHERAPEUTICS CO., LTD., priority 2019, published 2022)
Entries after “also recorded” stand apart in the source; their conditions may differ. Blank lines part the entries; values can stand above or below the molecule they belong to.

What was measured:
[1] = test system: antigen-specific T cells (CD4 or CD8-positive) from healthy human PBMCs; assay: Immunogenicity evaluation of peptides with healthy human PBMCs (ICS for IFNy or IFNy ELISA); type: cell-based; settings: for activation of CD8-positive cells: donor No. 9; for immunogenicity as HLA Class I / Class II epitope / activation of CD4-positive T cells: healthy donor PBMCs; for activation of CD4-positive T cells: CD4-positive IFNy-producing cells; for samples in which the peptide had immunogenicity (positive/tested): single peptide re-analysis, 24 donors (Mix-1, Mix-2 peptides) or 25 donors (Mix-3 peptides)
Source text: Peripheral blood mononuclear cells (PBMCs) that were those of a lot containing HLA-A*24:02 or A*02:01 of purified normal human PBMCs (Precision Bioservice, 93000-10M or -50M), were selected and used. Alternatively, PBMCs were separated and collected by density gradient centrifugation from peripheral blood provided by 10 healthy volunteers (including those of HLA-A*24:02 or A*02:01) recruited at the Kanagawa Cancer Center Research Institute, and were used in the experiment.
Healthy human PBMCs of 2×10^6 cells were cultured (a CO2 incubator; 5% CO2 and at 37° C.) for 7 days in the presence of the peptides to be evaluated (2, 2.5 or 5 μg/mL, and in the case of Mix (described later), 2 lag/mL for each peptide), and then the cells were collected. AIM-V medium (Thermo Fisher Scientific K.K., 12055-091) supplemented with a 5% human serum (NIP Biomedicals, 2931949) was used as medium.
On the other hand, the PBMCs of the same lot were cultured in the presence of a GM-CSF and IL-4 for 7 days to differentiate into dendritic cells (DC), and a part thereof was cryopreserved.
Cell stimulation for evaluation of immunogenicity was carried out according to the method outlined in FIG. 2. Namely, the PBMCs stimulated with the peptide for 7 days were collected and co-cultured in the presence of DC (1×10^5 cells) treated with a mitomycin C (60 μg/mL, Kyowa Kirin Co., Ltd.), each peptide (2, 2.5 or 5 μg/mL), and 0.1 KE/mL of OK-432 (for injection of Picibanil, Chugai Pharmaceutical Co., Ltd.). An IL-2 (PeproTech, Inc., AF-200-02) was added at 10 IU/mL on the second day of the co-culture (Day 9 with the stimulation start date as Day 0), and the cells were further cultured for 5 days.
After culturing (Day 14), the cells were collected, the cryopreserved DC was thawed, and the cells were co-cultured again in the presence of the same concentration of each peptide for 7 days. The cells cultured for a total of 21 days were collected, and activation of antigen-specific T cells was confirmed by intracellular cytokine staining (ICS) or IFNy ELISA. For evaluation, the PBMCs for 24 donors (of Mix-1 and Mix-2) or the PBMCs for 25 donors (of Mix-3) (the donor numbers 1 to 10 are derived from healthy volunteers, and the donor numbers with 3 digits were purchased from Precision Bioservice, Inc.), were used. In this study, 10 kinds of peptides designed from the sequences containing the driver mutations in Example 1 and synthesized (SEQ ID NO: 1 to SEQ ID NO: 10) were mixed to the following mixtures containing 3 to 4 kinds of peptides (see FIG. 4): Mix-1: a mixture of KRA S-G 1 2C (SEQ ID NO: 3), NRAS-Q61K (SEQ ID NO: 6) and PIK3CA-H1047R (SEQ ID NO: 8); Mix-2: a mixture of KRAS-G12V (SEQ ID NO: 2), NRAS-Q61R (SEQ ID NO: 7), and PIK3CA-E545K (SEQ ID NO: 9); and Mix-3: a mixture of KRAS-G12D (SEQ ID NO: 1), KRAS-G12R (SEQ ID NO: 4), KRAS-G13D (SEQ ID NO: 5), and C-Kit-D816V (SEQ ID NO: 10). First, activation of antigen-specific T cells by stimulation with each Mix was observed, and when the activation was observed, the T cells were stimulated in the presence of each peptide alone to identify a peptide having immunogenicity. The presence or absence of activation was determined by the ICS (IFNy) or ELISA (IFNy in the culture supernatant).
Intracellular cytokine staining (ICS) was carried out according to the following procedure. The cells (5.0×10^4 cells) cultured for 21 days in the presence of the peptide and collected in the present Example, and antigen-presenting cells (APC) (autologous DC; 5×10^3 cells) were placed in a 96-well U bottom plate and cultured for 2 hours in the presence of the peptide. 10 μg/mL of Brefeldin A (Merck KGaA, B7651) was added to the cells to culture for 20 to 24 hours. […]

[2] = test system: PIK3CA-H1047R-specific TCR-T cells; assay: Antigen specificity of TCR-T cells (IFNy-producing cells by flow cytometer); type: cell-based, human; settings: TCR-T cells co-cultured with APC (donor No. 9-derived EB virus immortalized B cells) in the presence of the peptide, 20 to 24 hours
Method: Via a retrovirus vector (donated by Toyama University) to which the TCRa chain gene (SEQ ID NO: 29) and TCRI3 chain gene (SEQ ID NO: 30) identified in Example 5 derived from the donor No. 9-derived PIK3CA-H1047R-specific T cells were inserted, a cell line (TCR-T cell) expressing the TCR gene was prepared by introducing the PIK3CA-H1047R-specific TCR gene into T cells derived from healthy subjects. The prepared TCR-T cells (TCR gene-expressing cell line) (5.0×10^4 cells as T cells) and APC (donor No. 9-derived EB virus immortalized B cells; 5×10^3 cells) were cultured in a 96 well U bottom plate for 20 to 24 hours in the presence of the antigen peptide (PIK3CA-H1047R (SEQ ID NO: 8)) or the wild-type peptide thereof ([…]), then the cultured cells were collected, and antigen specificity was confirmed by detecting IFNy-producing cells with a flow cytometer.

[3] = biological target: T1, PIK3CA H1047R peptide on HLA-DRB1*04:05 (human); assay: cytokine release
T1 peptide: MKQMNDARHGGWTT

[4] = biological target: T2, PIK3CA H1047R peptide on HLA-DRB1*04:05 (human); assay: cytokine release
T2 peptide: LEYFMKQMNDARHGG

[5] = biological target: T3, PIK3CA wild-type peptide on HLA-DRB1*04:05 (human); assay: cytokine release
T3 peptide: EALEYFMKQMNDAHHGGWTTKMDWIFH

[6] = biological target: T4, PIK3CA H1047R peptide on HLA-DRB1*04:05 (human); assay: cytokine release
T4 peptide: ALEYFMKQMNDARHG

[7] = biological target: T5, PIK3CA H1047R peptide on HLA-DRB1*04:05 (human); assay: cytokine release
T5 peptide: YFMKQMNDARHGGW

[8] = biological target: T6, PIK3CA H1047R peptide on HLA-DRB1*04:05 (human); assay: cytokine release
T6 peptide: EALEYFMKQMNDARH

[9] = biological target: T7, PIK3CA H1047R peptide on HLA-DRB1*04:05 (human); assay: cytokine release
T7 peptide: EYFMKQMNDARHGGW

[10] = biological target: T8, PIK3CA H1047R peptide on HLA-DRB1*04:05 (human); assay: cytokine release
T8 peptide: FMKQMNDARHGGWT

Molecule: C-Kit-D816V: 27-mer C-Kit D816V neoantigen peptide GRITKICDFGLAR[V]IKNDSNYVVKGNA (GRITKICDFGLARVIKNDSNYVVKGNA; listed as Homo sapiens)
activation of CD8-positive cells [1]: activation of CD8-positive cells was observed in 1 donor
immunogenicity as HLA Class I / Class II epitope [1]: immunogenicity as both the HLA Class I epitope and the Class II epitope
activation of CD4-positive T cells [1]: those derived from 4 donors were CD4 positive; also recorded: activation of CD4-positive T cells was observed; also recorded: particularly strong ability to activate CD4-positive helper T cells
samples in which the peptide had immunogenicity (positive/tested) [1]: 5/25

Molecule: EALEYFMKQMNDAHHGGWTTKMDWIFH [WT1, wild-type peptide of PIK3CA-H1047R, reference compound]
frequency of IFNy-producing cells [2]: less than 1%

Molecule: KRAS-G12D: 27-mer KRAS G12D neoantigen peptide MTEYKLVVVGA[D]GVGKSALTIQLIQNH
activation of CD4-positive T cells [1]: activation of CD4-positive T cells was observed; also recorded: particularly strong ability to activate CD4-positive helper T cells
frequency of samples in which the peptide had immunogenicity ([1]; samples derived from healthy people, single peptide analysis): 4.0%
samples in which the peptide had immunogenicity (positive/tested) [1]: 1/25

Molecule: NRAS-Q61R: 27-mer NRAS Q61R neoantigen peptide GETCLLDILDTAG[R]EEYSAMRDQYMRT (GETCLLDILDTAGREEYSAMRDQYMRT; listed as Homo sapiens)
activation of CD4-positive T cells [1]: they were all CD4-positive T cells; also recorded: activation of CD4-positive T cells was observed; also recorded: particularly strong ability to activate CD4-positive helper T cells
samples in which the peptide had immunogenicity (positive/tested) [1]: 3/24

Molecule: PIK3CA-H1047R: 27-mer PIK3CA H1047R neoantigen peptide EALEYFMKQMNDA[R]HGGWTTKMDWIFH (EALEYFMKQMNDARHGGWTTKMDWIFH; listed as Homo sapiens)
frequency of IFNy-producing cells [2]: 30.4%±0.9%
activation of CD8-positive cells [1]: activation of CD8-positive cells was also observed
immunogenicity as HLA Class I / Class II epitope [1]: immunogenicity as both the HLA Class I epitope and the Class II epitope
activation of CD4-positive T cells [1]: All antigen-specific T cells activated in the 4 donors were CD4 positive; also recorded: activation of CD4-positive T cells was observed; also recorded: particularly strong ability to activate CD4-positive helper T cells
samples in which the peptide had immunogenicity (positive/tested) [1]: 4/24

binding result [3]: recognises
binding result [4]: recognises
binding result [5]: no recognition
binding result [6]: recognises
binding result [7]: recognises
binding result [8]: recognises
binding result [9]: recognises
binding result [10]: recognises
B1: TCR of the donor No. 9-derived PIK3CA-H1047R-specific T cells (SEQ ID NOs 29 and 30) (TCR, V domains shown)
Valpha: QQVKQSPQSLIVQKGGISIINCAYENTAFEYFPWYQQFPGKGPALLIAIRPDVSEKKEGRFTISFNKSAKQFSLHIMDSQPGDSATYFCAASGSYNNNDMRFGAGTRLTVKP
Vbeta: NAGVTQTPKFQVLKTGQSMTLQCAQDMNHEYMSWYRQDPGMGLRLIHYSVGAGITDQGEVPNGYNVSRSTTEDFPLRLLSAAPSQTSVYFCASSYASPGTGYSGELFFGEGSRLTVL
